Source: ChEMBL document CHEMBL5143531, “Towards multi-target antidiabetic agents: In vitro and in vivo evaluation of 3,5-disubstituted indolin-2-one derivatives as novel α-glucosidase inhibitors” (Bioorg Med Chem Lett, 2022)
pIC50: −log10 of the molar value.

Key:
Saccharomyces cerevisiae [1] = experiment: Inhibition of yeast alpha-glucosidase at 100 uM
[2] = Inhibition of yeast alpha-glucosidase; parameters: species or system Saccharomyces cerevisiae
Rattus norvegicus [3] = experiment: Anti-hyperglycemic activity in Wistar rat assessed as reduction in plasma glucose AUC (0 to 120 mins) at 5 mg/kg, po followed by maltose load by oral maltose tolerance test; assay type: functional
[4] = Inhibition of yeast alpha-glucosidase using p-nitrophenyl glycoside as substrate preincubated with enzyme for 30 mins followed by substrate addition for 60 mins by spectrophotometric analysis; parameters: species or system Saccharomyces cerevisiae
[5] = Inhibition of yeast alpha-glucosidase using p-nitrophenyl glycoside as substrate preincubated with enzyme for 15 mins followed by substrate addition for 30 mins; parameters: species or system Saccharomyces cerevisiae
[6] = target: Glycogen synthase kinase-3 beta (Homo sapiens, UniProt P49841)
Rattus norvegicus [7] = experiment: Anti-hyperglycemic activity in Wistar rat assessed as reduction in plasma glucose AUC (0 to 120 mins) at 5 mg/kg, po followed by sucrose load by oral sucrose tolerance test; assay type: functional
Rattus norvegicus [8] = experiment: Anti-hyperglycemic activity in Wistar rat assessed as reduction in plasma glucose AUC (0 to 120 mins) at 5 mg/kg, po followed by glucose load by oral glucose tolerance test; assay type: functional
Saccharomyces cerevisiae [9] = experiment: Potency index, ratio of acarbose IC50 to test compound IC50 for inhibition of yeast alpha-glucosidase
Rattus norvegicus [10] = experiment: Anti-hyperglycemic activity in Wistar rat assessed as reduction in plasma glucose AUC (0 to 120 mins) at 10 mg/kg, po followed by glucose load by oral glucose tolerance test; assay type: functional
Rattus norvegicus [11] = experiment: Anti-hyperglycemic activity in Wistar rat assessed as reduction in plasma glucose AUC (0 to 120 mins) at 10 mg/kg, po followed by sucrose load by oral sucrose tolerance test; assay type: functional

Glycogen synthase kinase-3 beta, sequence (P49841 whole entry): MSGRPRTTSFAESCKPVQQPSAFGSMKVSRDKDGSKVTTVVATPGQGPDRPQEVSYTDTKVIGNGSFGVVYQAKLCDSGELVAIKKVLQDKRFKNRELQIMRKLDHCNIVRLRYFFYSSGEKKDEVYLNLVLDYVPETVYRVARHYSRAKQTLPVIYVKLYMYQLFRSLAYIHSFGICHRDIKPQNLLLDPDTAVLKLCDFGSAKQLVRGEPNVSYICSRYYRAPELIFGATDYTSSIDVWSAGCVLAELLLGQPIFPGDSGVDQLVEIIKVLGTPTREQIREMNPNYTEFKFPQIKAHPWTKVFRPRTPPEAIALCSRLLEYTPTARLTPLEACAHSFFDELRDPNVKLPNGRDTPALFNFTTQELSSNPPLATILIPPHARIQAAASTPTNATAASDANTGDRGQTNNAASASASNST

Row | SMILES | inhibition (Saccharomyces cerevisiae [1]) [%] | further results
1 | COc1cc(C=C2C(=O)Nc3ccc(NC(C)=O)cc32)cc(OC)c1OC | -9.74 | –
2 | COc1ccc2c(c1)C(=CC(=O)O)C(=O)N2 (mixture of isomers) | 81.1 | pIC50 [2]: 4.58
3 | Cc1ccc(C(=O)CC2(O)C(=O)Nc3ccccc32)cc1 (stereo unspecified) | -4.01 | –
4 | COc1ccc(C(=O)CC2(O)C(=O)Nc3ccc(Br)cc32)cc1 (stereo unspecified) | -3.83 | –
5 | C[C@H]1O[C@H](O[C@H]2[C@H](O)[C@@H](O)[C@@H](O[C@H]3[C@H](O)[C@@H](O)C(O)O[C@@H]3CO)O[C@@H]2CO)[C@H](O)[C@@H](O)[C@@H]1N[C@H]1C=C(CO)[C@@H](O)[C@H](O)[C@H]1O (stereo partly specified) [ACARBOSE] | 46.6 | pIC50 [2]: 3.36; inhibition in vivo at 5 mg/kg (Rattus norvegicus [3]): 37.2%
6 | Cc1nn(-c2ccccc2)c(C)c1C=C1C(=O)Nc2ccccc21 (single isomer, unassigned) | 75.5 | pIC50 [2]: 3.81
7 | O=C1Nc2ccccc2C1=Cc1cccs1 (mixture of isomers) | -1.25 | –
8 | Cc1[nH]ncc1C=C1C(=O)Nc2ccccc21 (mixture of isomers) | 40.8 | –
9 | O=C1Nc2ccccc2C1=Cc1ccc([N+](=O)[O-])cc1 (mixture of isomers) | 81.6 | pIC50 [2]: 4.21
10 | O=C1Nc2ccccc2C12CC2c1ccccn1 (stereo unspecified) | 12.1 | –
11 | COC(=O)Nc1ccc2c(c1)C(=Cc1ccc(O)cc1)C(=O)N2 | 57.9 | pIC50 [2]: 4.12
12 | COc1ccc2c(c1)C(=CC#N)C(=O)N2Cc1ccccc1 (single isomer, unassigned; isomer 1) | 15.5 | –
13 | COc1ccc2c(c1)C(O)(CC(=O)c1ccc(C)cc1)C(=O)N2 (stereo unspecified) | 65.4 | pIC50 [2]: 4.22
14 | Cc1n[nH]c(C)c1C=C1C(=O)Nc2ccccc21 (mixture of isomers) | 12.6 | –
15 | O=C1Nc2ccccc2C1=Cc1ccncc1 (mixture of isomers) | -3.17 | –
16 | CN1C(=O)C2(CC2C#N)c2cc(Br)ccc21 (stereo unspecified) | 61.2 | –
17 | O=C1Nc2ccc(Br)cc2C1=Cc1ccncc1 (mixture of isomers) | -0.73 | –
18 | CN1C(=O)C(=Cc2ccc(O)cc2)c2ccccc21 (mixture of isomers) | 33.2 | –
19 | O=C1Nc2ccccc2C1=Cc1cn[nH]c1C(=O)O (mixture of isomers) | 11.4 | –
20 | O=C(CSc1nnc2c(n1)[nH]c1ccccc12)c1cccc(O)c1 | – | pIC50 [4]: 5.60
21 | O=C1Nc2ccccc2C1=Cc1ccc(O)cc1 (single isomer, unassigned; isomer 1) | 21.6 | –
22 | O=C1Nc2ccc([N+](=O)[O-])cc2C1=Cc1ccncc1 (mixture of isomers) | -1.71 | –
23 | O=C1Nc2ccc(NC(=O)c3ccco3)cc2C1=Cc1ccc(O)cc1 (mixture of isomers) | 57.9 | –
24 | O=C(N/N=C/c1cc(O)c(O)c(O)c1)c1cc2ccccc2[nH]1 | – | pIC50 [5]: 5.64
25 | O=C1Nc2ccc([N+](=O)[O-])cc2C1=CC(=O)c1ccco1 (single isomer, unassigned; isomer 1) | 8.9 | –

Row | SMILES | inhibition (Saccharomyces cerevisiae [1]) [%] | further results
26 | O=C1Nc2ccc(NC(=O)c3ccccc3)cc2C1=Cc1ccc(O)cc1 (mixture of isomers) | 92.3 | pIC50 [2]: 3.87; pIC50 [6]: 5.36
27 | O=C1Nc2ccccc2C1=CC(=O)c1ccco1 (mixture of isomers) | 37.5 | –
28 | COc1cc(NC(C)=O)c2c(c1)C(CC#N)(OC(C)=O)C(=O)N2 (stereo unspecified) | 4.75 | –
29 | COC(=O)Nc1ccc2c(c1)C(=Cc1ccc([N+](=O)[O-])cc1)C(=O)N2 (mixture of isomers) | 103 | pIC50 [2]: 5.17; inhibition in vivo at 5 mg/kg (Rattus norvegicus [7]): 28.8%; inhibition in vivo at 5 mg/kg (Rattus norvegicus [3]): 42.1%; inhibition in vivo at 5 mg/kg (Rattus norvegicus [8]): 12.3%; Ratio IC50 (Saccharomyces cerevisiae [9]): 80
30 | CC(=O)Nc1ccc2c(c1)C(CC(=O)O)(OC(C)=O)C(=O)N2 (stereo unspecified) | -5.09 | –
31 | N#C[C@@H]1CCCN1C(=O)CNC12CC3CC(CC(O)(C3)C1)C2 [VILDAGLIPTIN] | – | inhibition in vivo at 10 mg/kg (Rattus norvegicus [10]): 28.6%; inhibition in vivo at 10 mg/kg (Rattus norvegicus [11]): 17.9%
32 | Cc1ccc(C(=O)CC2(O)C(=O)Nc3ccc(NC(=O)c4ccccc4)cc32)cc1 (stereo unspecified) | 52.2 | –
33 | CC(=O)Nc1ccc2c(c1)C(=Cc1cccc(O)c1)C(=O)N2 (single isomer, unassigned; isomer 1) | 14.9 | –
34 | O=C1Nc2ccccc2C1=Cc1cccnc1 (mixture of isomers) | 2.08 | –
35 | Cn1cc(C=C2C(=O)Nc3ccccc32)cn1 | 34.5 | –
36 | O=C1Nc2ccc([N+](=O)[O-])cc2C1=Cc1cn[nH]c1C(=O)O (mixture of isomers) | 33.6 | –
37 | O=C1Nc2ccc(Br)cc2C1=CC(=O)c1ccco1 (mixture of isomers) | -3.81 | –
38 | O=C1Nc2ccccc2C1=Cc1ccccn1 | -10 | –
39 | Nc1ccc(CC2C(=O)Nc3ccccc32)cc1 (stereo unspecified) | -3.64 | –
40 | O=C1Nc2ccc(Br)cc2C1=Cc1cccnc1 | 10.7 | –
41 | N#CCC1(O)C(=O)Nc2ccc(NC(=O)c3ccccc3)cc21 (stereo unspecified) | 29.2 | –
42 | CCC(=O)Nc1cc(NC(=O)CC)c2c(c1)C(CC#N)(OC(=O)CC)C(=O)N2 (stereo unspecified) | 14.4 | –
43 | Cc1ccc(C(=O)CC2(O)C(=O)Nc3ccc(Br)cc32)cc1 (stereo unspecified) | -3.94 | –
44 | O=C1Nc2ccc([N+](=O)[O-])cc2C1=Cc1cccnc1 | -7.99 | –
45 | O=C1Nc2ccc(NC(=O)c3ccccc3)cc2C1=Cc1ccc([N+](=O)[O-])cc1 (mixture of isomers) | 104 | pIC50 [2]: 4.25
46 | COC(=O)Nc1ccc2c(c1)C(=Cc1ccc(Br)cc1)C(=O)N2 (mixture of isomers) | 81.7 | pIC50 [2]: 4.16
47 | COc1cc(C=C2C(=O)Nc3ccc(NC(=O)c4ccco4)cc32)cc(OC)c1OC (single isomer, unassigned; isomer 1) | 31.8 | –
48 | O=C1Nc2ccc(Br)cc2C1=Cc1ccccn1 | -1.49 | –
49 | CN1C(=O)C(=Cc2ccccn2)c2ccccc21 | 19.9 | –
